Data from the NIST ThermoML archive (doi:10.1016/j.jct.2016.03.021).

Assay: wn = mass fraction of the nth substance listed
Conditions: Liquid; for mass density: Vibrating tube method

NCCO [2-aminoethan-1-ol] + O
viscosity [mPa·s]
Conditions	w1 = 0.1	w1 = 0.1001	w1 = 0.2	w1 = 0.3	w1 = 0.3005	w1 = 0.4	w1 = 0.4001
293.15 K, 93 kPa, Concentric cylinders viscometry	1.409	–	1.982	2.967	–	4.326	–
293.15 K, 100 kPa, Falling or rolling sphere viscometry	–	1.435	1.968	–	2.913	–	4.315
293.15 K, 101 kPa, Falling or rolling sphere viscometry	1.435	–	1.968	2.913	–	4.315	–
293.15 K, 5000 kPa, Falling or rolling sphere viscometry	–	1.435	1.97	–	2.921	–	4.34
293.15 K, 10000 kPa, Falling or rolling sphere viscometry	–	1.434	1.969	–	2.93	–	4.368
293.15 K, 20000 kPa, Falling or rolling sphere viscometry	–	1.43	1.973	–	2.952	–	4.426
293.15 K, 30000 kPa, Falling or rolling sphere viscometry	–	1.43	1.977	–	2.972	–	4.475
293.15 K, 40000 kPa, Falling or rolling sphere viscometry	–	1.429	1.983	–	2.99	–	4.528
293.15 K, 60000 kPa, Falling or rolling sphere viscometry	–	1.431	1.994	–	3.032	–	4.628
293.15 K, 80000 kPa, Falling or rolling sphere viscometry	–	1.434	2.009	–	3.076	–	4.739
293.15 K, 100000 kPa, Falling or rolling sphere viscometry	–	1.432	2.026	–	3.12	–	4.845
293.15 K, 120000 kPa, Falling or rolling sphere viscometry	–	1.443	2.046	–	3.162	–	4.954
313.15 K, 93 kPa, Concentric cylinders viscometry	0.8932	–	1.198	1.675	–	2.284	–
313.15 K, 100 kPa, Falling or rolling sphere viscometry	–	0.891	1.173	–	1.638	–	2.284
313.15 K, 101 kPa, Falling or rolling sphere viscometry	0.891	–	1.173	1.638	–	2.284	–
313.15 K, 5000 kPa, Falling or rolling sphere viscometry	–	0.892	1.178	–	1.642	–	2.306
313.15 K, 10000 kPa, Falling or rolling sphere viscometry	–	0.892	1.182	–	1.649	–	2.319
313.15 K, 20000 kPa, Falling or rolling sphere viscometry	–	0.896	1.19	–	1.668	–	2.352
313.15 K, 30000 kPa, Falling or rolling sphere viscometry	–	0.899	1.197	–	1.686	–	2.384
313.15 K, 40000 kPa, Falling or rolling sphere viscometry	–	0.902	1.205	–	1.702	–	2.416
313.15 K, 60000 kPa, Falling or rolling sphere viscometry	–	0.91	1.219	–	1.735	–	2.479
313.15 K, 80000 kPa, Falling or rolling sphere viscometry	–	0.918	1.232	–	1.77	–	2.544
313.15 K, 100000 kPa, Falling or rolling sphere viscometry	–	0.927	1.249	–	1.804	–	2.609
313.15 K, 120000 kPa, Falling or rolling sphere viscometry	–	0.936	1.263	–	1.846	–	2.675
333.15 K, 93 kPa, Concentric cylinders viscometry	0.6263	–	0.7832	1.084	–	1.405	–
333.15 K, 100 kPa, Falling or rolling sphere viscometry	–	0.615	0.78	–	1.061	–	1.389
333.15 K, 101 kPa, Falling or rolling sphere viscometry	0.615	–	0.78	1.061	–	1.389	–
333.15 K, 5000 kPa, Falling or rolling sphere viscometry	–	0.614	0.788	–	1.067	–	1.401
333.15 K, 10000 kPa, Falling or rolling sphere viscometry	–	0.617	0.792	–	1.075	–	1.41
333.15 K, 20000 kPa, Falling or rolling sphere viscometry	–	0.622	0.799	–	1.089	–	1.434
333.15 K, 30000 kPa, Falling or rolling sphere viscometry	–	0.625	0.807	–	1.103	–	1.453

mass density [kg/m3]
Conditions	w1 = 0.1001	w1 = 0.2	w1 = 0.3005	w1 = 0.4
293.15 K, 100 kPa	1002.5	1006.9	1012.3	1018.1
293.15 K, 500 kPa	1002.7	1007	1012.5	1018.1
293.15 K, 1000 kPa	1002.9	1007.2	1012.7	1018.3
293.15 K, 2000 kPa	1003.3	1007.6	1013	1018.6
293.15 K, 5000 kPa	1004.6	1008.7	1014.1	1019.6
293.15 K, 10000 kPa	1006.7	1010.7	1016	1021.4
293.15 K, 15000 kPa	1008.8	1012.6	1017.7	1023.1
293.15 K, 20000 kPa	1010.9	1014.5	1019.6	1024.8
293.15 K, 30000 kPa	1015.1	1018.4	1023.2	1028.3
293.15 K, 40000 kPa	1019.1	1022.1	1026.6	1031.6
293.15 K, 50000 kPa	1023	1025.8	1030	1034.8
293.15 K, 60000 kPa	1026.9	1029.4	1033.5	1038.1
293.15 K, 70000 kPa	1030.8	1033	1036.9	1041.4
293.15 K, 80000 kPa	1034.5	1036.2	1040	1044.3
293.15 K, 90000 kPa	1038.2	1039.7	1043.3	1047.5
293.15 K, 100000 kPa	1041.8	1043.2	1046.6	1050.4
293.15 K, 110000 kPa	1045.2	1046.4	1049.6	1053.3
293.15 K, 120000 kPa	1048.8	1049.6	1052.6	1056.3
313.15 K, 100 kPa	995.9	999.1	1003.2	1007.5
313.15 K, 500 kPa	996	999.2	1003.4	1007.7
313.15 K, 1000 kPa	996.3	999.4	1003.6	1007.9
313.15 K, 2000 kPa	996.6	999.8	1004	1008.3
313.15 K, 5000 kPa	997.9	1001	1005.1	1009.3
313.15 K, 10000 kPa	1000	1002.9	1007	1011.2
313.15 K, 15000 kPa	1002	1004.8	1008.8	1012.9
313.15 K, 20000 kPa	1004	1006.7	1010.6	1014.7
313.15 K, 30000 kPa	1008.1	1010.5	1014.3	1018.2
313.15 K, 40000 kPa	1012.1	1014.3	1017.9	1021.7
313.15 K, 50000 kPa	1015.9	1017.9	1021.3	1025.1
313.15 K, 60000 kPa	1019.8	1021.5	1024.8	1028.4
313.15 K, 70000 kPa	1023.4	1025	1028.2	1031.7
313.15 K, 80000 kPa	1027	1028.5	1031.4	1034.8
313.15 K, 90000 kPa	1030.6	1031.8	1034.5	1037.8
313.15 K, 100000 kPa	1034.2	1035.1	1037.9	1041.1
313.15 K, 110000 kPa	1037.6	1038.4	1041	1044
313.15 K, 120000 kPa	1041.1	1041.8	1044.1	1047
333.15 K, 100 kPa	986.3	988.8	992	995.3
333.15 K, 500 kPa	986.5	988.9	992.3	995.6
333.15 K, 1000 kPa	986.7	989.1	992.4	995.8
333.15 K, 2000 kPa	987.1	989.5	992.8	996.2
333.15 K, 5000 kPa	988.4	990.7	994	997.3
333.15 K, 10000 kPa	990.5	992.7	996	999.3
333.15 K, 15000 kPa	992.6	994.7	997.9	1001.1
333.15 K, 20000 kPa	994.6	996.6	999.7	1003
333.15 K, 30000 kPa	998.6	1000.5	–	–
